Assay [1] deals with ZR-75-1. Put plainly: Caspase cascade activation assay in ZR-75-1 cells (N-(Ac-DEVD)-N'-ethoxycarbonyl-R110 fluorogenic substrate). To be noted: ZR-75-1, 24 h incubation; for pEC50: Homo sapiens, read-out: Caspase potency EC50; for Caspase activity Ratio (net RFU of test compound to control): 0.016 to 10 μM final. Format: cell-based, Human. Here is the method:
(§1) Human breast cancer cell lines T-47D and ZR-75-1 were grown according to media component mixtures designated by American Type Culture Collection+10% FCS (Life Technologies Division of Invitrogen Corporation), in a 5% CO2-95% humidity incubator at 37° C. T-47D and ZR-75-1 cells were maintained at a cell density between 50 and 80% confluency at a cell density of 0.1 to 0.6×10^6 cells/ml. Cells were harvested at 600×g and resuspended at 0.65×10^6 cells/ml into appropriate media+10% FCS. An aliquot of 45 μl of cells was added to a well of a 96-well microtiter plate containing 2.5 μl of a 10% DMSO in RPMI-1640 media solution containing 0.16 to 100 μM of 6-bromo-3-[3-(4-nitrophenyl)-1-oxo-2-propenyl]-4-phenyl-2(1H)-quinolinone or other test compound (0.016 to 10 μM final). An aliquot of 22.5 μl of cells was added to a well of a 384-well microtiter plate containing 2.5 μl of a 10% DMSO in RPMI-1640 media solution without test compound as the control sample. The samples were mixed by agitation and then incubated at 37° C. for 24 h in a 5% CO2-95% humidity incubator. After incubation, the samples were removed from the incubator and 25 μl of a solution containing 14 μM of N-(Ac-DEVD)-N′-ethoxycarbonyl-R110 (SEQ ID No.: 1) fluorogenic substrate (Cytovia, Inc.; WO99/18856), 20% sucrose (Sigma), 20 mM DTT (Sigma), 200 mM NaCl (Sigma), 40 mM Na PIPES buffer pH 7.2 (Sigma), and 500 μg/ml lysolecithin (Calbiochem) was added. The samples were mixed by agitation and incubated at room temperature. Using a fluorescent plate reader (Model SpectraMax Gemini, Molecular Devices), an initial reading (T=0) was made approximately 1-2 min after addition of the substrate solution, employing excitation at 485 nm and emission at 530 nm, to determine the background fluorescence of the control sample. After the 3 h incubation, the samples were read for fluorescence as above (T=3 h).
(§2) The Relative Fluorescence Unit values (RFU) were used to calculate the sample readings as follows: RFU(T=3h)−Control RFU(T=0)=Net RFU(T=3h)
(§3) The activity of caspase cascade activation was determined by the ratio of the net RFU value for 6-bromo-3-[3-(4-nitrophenyl)-1-oxo-2-propenyl]-4-phenyl-2(1H)-quinolinone or other test compound to that of control samples. The EC50 (nM) was determined by a sigmoidal dose-response calculation (Prism 2.0, GraphPad Software Inc.).

Another assay concerns T-47D cells. Put plainly: Apoptosis in T-47D cells by propidium iodide flow cytometry (sub-diploid DNA content). To be noted: 5 μM, 48 h, control 3%. Format: cell-based, Human. Here is the method: T-47D, a breast cancer cell line, was maintained and harvested as described in Example 22. 5×10^5 cells were treated with 5 μM of 6-bromo-3-[3-(4-nitrophenyl)-1-oxo-2-propenyl]-4-phenyl-2(1H)-quinolinone for 48 h at 37° C. As a control, cells were also incubated with equivalent amount of solvent (DMSO). Cells were harvested at 1,200 rpm and then transferred to 12×75 mm polystyrene tubes. Cells were then resuspended in 500 μl of 1% Na Citrate, 0.1% Triton X-100, 50 μg/ml of propidium iodide and incubated at room temperature for 30 min followed by flow cytometer analysis. All flow cytometry analyses were performed on FACScalibur (Becton Dickinson) using Cell Quest analysis software. The x-axis plotted the amount of fluorescence and the y-axis is plotted the number of cells with the indicated fluorescence. The T-47D control cell population profile is seen in FIG. 1A. The sub-diploid DNA content of cells (FIG. 1B) is increased from 3% to 49% with compound treatment. The sub-diploid amount of DNA is indicative of apoptotic cells which have undergone DNA degradation or fragmentation.
(A flow cytometer gives signals particle by particle.)

In assay [2] the test system is T-47D. Briefly: Caspase cascade activation assay in T-47D cells (N-(Ac-DEVD)-N'-ethoxycarbonyl-R110 fluorogenic substrate). Format: cell-based, Human. The note with it: 24 h incubation; for Caspase activity Ratio (net RFU of test compound to control): 0.016 to 10 μM final; for pEC50: Homo sapiens, T47D, read-out: Caspase potency EC50. The procedure: as §1, §2, §3
In assay [3] the test system is ZR-75-1. Put plainly: Inhibition of cell proliferation (GI50), CellTiter 96 AQUEOUS One, ZR-75-1. Format: cell-based. The note with it: Homo sapiens, ZR-75-1, 48 h; read-out: GI50 (dose for 50% inhibition of cell proliferation). The procedure:
(§4) T-47D and ZR-75-1 cells were grown and harvested as in Example 22. An aliquot of 90 μl of cells (2.2×10^4 cells/ml) was added to a well of a 96-well microtiter plate containing 10 μl of a 10% DMSO in RPMI-1640 media solution containing 1 nM to 100 μM of 6-bromo-3-[3-(4-nitrophenyl)-1-oxo-2-propenyl]-4-phenyl-2(1H)-quinolinone (0.1 nM to 10 μM final). An aliquot of 90 μl of cells was added to a well of a 96-well microtiter plate containing 10 μl of a 10% DMSO in RPMI-1640 media solution without compound as the control sample for maximal cell proliferation (AMax). The samples were mixed by agitation and then incubated at 37° C. for 48 h in a 5% CO2-95% humidity incubator. After incubation, the samples were removed from the incubator and 20 μL of CellTiter 96 AQUEOUS One Solution Cell Proliferation™ reagent (Promega) was added. The samples were mixed by agitation and incubated at 37° C. for 2-4 h in a 5% CO2-95% humidity incubator. Using an absorbance plate reader (Model 1420 Wallac Instruments), an initial reading (T=0) was made approximately 1-2 min after addition of the solution, employing absorbance at 490 nm. This determines the possible background absorbance of the test compounds. No absorbance for 6-bromo-3-[3-(4-nitrophenyl)-1-oxo-2-propenyl]-4-phenyl-2(1H)-quinolinone was found at 490 nm. After the 2-4 h incubation, the samples were read for absorbance as above (ATest). […]

Assay [4] has as its system T-47D. Briefly: Inhibition of cell proliferation (GI50), CellTiter 96 AQUEOUS One, T-47D. Format: cell-based. The note with it: Homo sapiens, T47D, 48 h, read-out: GI50 (dose for 50% inhibition of cell proliferation). The procedure:
as §4

Assay [5] deals with T1, protein tyrosine phosphatase 1B (PTP1B) (Homo sapiens, UniProt P18031).
T1 sequence (P18031 1-435): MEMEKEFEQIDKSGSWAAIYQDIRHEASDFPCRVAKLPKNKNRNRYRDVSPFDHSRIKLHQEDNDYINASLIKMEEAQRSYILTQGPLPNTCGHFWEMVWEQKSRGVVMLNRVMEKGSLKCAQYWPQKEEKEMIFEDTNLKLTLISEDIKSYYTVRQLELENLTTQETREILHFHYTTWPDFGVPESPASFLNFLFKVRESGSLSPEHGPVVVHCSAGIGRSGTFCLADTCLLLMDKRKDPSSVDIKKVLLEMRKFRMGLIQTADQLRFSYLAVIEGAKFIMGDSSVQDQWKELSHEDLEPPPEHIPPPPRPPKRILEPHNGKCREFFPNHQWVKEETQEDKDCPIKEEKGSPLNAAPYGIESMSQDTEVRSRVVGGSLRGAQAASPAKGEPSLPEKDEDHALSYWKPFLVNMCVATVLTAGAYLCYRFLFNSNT
To be noted: read-out: Ki5; cited from earlier work.

pEC50, pKi: −log10 of the molar value.

One may read the pEC50 as the negative decadic logarithm of the EC50, by convention in mol/L. For `O=C(C=Cc1ccc([N+](=O)[O-])cc1)c1c(-c2ccccc2)c2cc(Br)ccc2[nH]c1=O` [Compound A, 6-bromo-3-[3-(4-nitrophenyl)-1-oxo-2-propenyl]-4-phenyl-2(1H)-quinolinone], the pEC50 in the assay with ZR-75-1 [1] is 5.48; with T-47D [2], 5.72. The “Caspase activity Ratio (net RFU of test compound to control)” value (“Caspase activity Ratio” below) is on record as 12.4 with ZR-75-1 [1] and 8.7 in the assay with T-47D [2]. In addition, the “sub-diploid DNA content of cells (M1)” value in the assay with T-47D cells came out at 49%. Further, the GI50 with ZR-75-1 [3] and in the assay with T-47D [4] was 500 nM throughout.

As for `O=C(/C=C/c1cccc([N+](=O)[O-])c1)c1c(-c2ccccc2)c2ccc([N+](=O)[O-])cc2[nH]c1=O` [7-Nitro-3-[3-(3-nitrophenyl)-acryloyl]-4-phenyl-1H-quinolin-2-one], in assay [5], the pKi is 4.27.

In the case of `O=C(C=Cc1cccc([N+](=O)[O-])c1)c1c(-c2ccccc2)c2cc(Br)ccc2[nH]c1=O` [Compound B, 6-bromo-3-[3-(3-nitrophenyl)-1-oxo-2-propenyl]-4-phenyl-2(1H)-quinolinone], in the assay on ZR-75-1 [1], the pEC50 was 5.74 and the “Caspase activity Ratio” value is 12.1. Besides, in the assay on T-47D [2], the “Caspase activity Ratio” value was 10.6 and the pEC50 is 6.07.

(Values after patent US20050165053A1, “Substituted4-aryl-3-(3-aryl-1-oxo-2-propenyl)-2(1h)-quinolinones and analogs as activators of caspases and inducers of apoptosis and the use thereof” (Cytovia, Inc., priority 2001, published 2005).)
